Patent US12690608B2, “Arecoline salt and preparation method and product thereof” (priority 2020, dated 2026)

Columns and labels:
[1] = system: smokers; experiment: Comparison test on puff experience (scores by multiple smokers); type: in vivo; conditions: same content (3%)
Excerpt: An arecoline salt and an arecoline hydrobromide of the same content (3%) are selected for puff experience tests, and scores are given from 0 to 5 in terms of pleasure, increased heart rate, ruddy face, body fever, slight sweating and so on by evaluation of multiple smokers.

[2] = Physicochemical analysis: appearance on standing at room temperature; conditions: salt prepared at molar ratio of arecoline to benzoic acid of 1; viscous yellow oily substance
[3] = Comparison test on atomization (smoking machine, Cambridge filter, conversion rate k); type: physicochemical; conditions: concentrations 1-15%
[4] = Surface temperature of heating element while heating the heat-not-burn cigarette (infrared thermal imager)

COC(=O)C1=CCCN(C)C1.O=C(O)c1ccccc1 [arecoline salt, benzoate of arecoline]
Puff experience compared with arecoline hydrobromide (pleasure, increased heart rate, ruddy face, body fever, slight sweating) [1]: obviously superior to the arecoline hydrobromide | Change of appearance when placed at room temperature [2]: darkens slowly when placed at room temperature | Conversion rate compared with arecoline hydrobromide [3]: obviously higher than that of the arecoline hydrobromide | Temperature at which the arecoline salt in the cigarette can be atomized ([4]; in heat-not-burn cigarette, generates a smokable aerosol): 150-250 °C | Puff duration (temperature) 1 s ([4]; surface temperature of heating element, resistance heating, heat-not-burn cigarette containing arecoline salt, puff duration 1 s): 153.1 °C | Puff duration (temperature) 2 s ([4]; surface temperature of heating element, resistance heating, heat-not-burn cigarette containing arecoline salt, puff duration 2 s): 228.3 °C | Puff duration (temperature) 3 s ([4]; surface temperature of heating element, resistance heating, heat-not-burn cigarette containing arecoline salt, puff duration 3 s): 241.1 °C
